Assay results as given in BindingDB's records for doi:10.1021/bi300490r (University of Pittsburgh, 2012).

Key:
[1] = target: T1, DNA-(apurinic or apyrimidinic site) endonuclease (Homo sapiens, UniProt P27695); experiment: Molecular Beacon Assay
Protocol: A fluorescenc-based molecular beacon assay to measure APE-1 protein activity and inhibition was performed as described.

[2] = target: T1, DNA-(apurinic or apyrimidinic site) endonuclease; experiment: Gel-Based Assay
Source text: In addition to the real-time fluorescence assay for studying inhibition of APE-1 activity, we also employed a gel-based assay to visualize and quantify repair activity of APE-1 and its inhibition.

T1 sequence (P27695 whole entry): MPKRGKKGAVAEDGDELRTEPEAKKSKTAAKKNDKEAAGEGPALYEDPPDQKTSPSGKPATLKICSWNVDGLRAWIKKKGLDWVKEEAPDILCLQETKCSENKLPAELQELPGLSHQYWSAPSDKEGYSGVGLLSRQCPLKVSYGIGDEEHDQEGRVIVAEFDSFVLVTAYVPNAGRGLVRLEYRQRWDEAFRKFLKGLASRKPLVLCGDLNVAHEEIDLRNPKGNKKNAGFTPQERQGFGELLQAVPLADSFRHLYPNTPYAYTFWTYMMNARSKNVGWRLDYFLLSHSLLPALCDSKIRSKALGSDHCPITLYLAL

Row | Compound | Ki [1] [µM] | IC50 [2] [µM]
1 | N=c1[nH]nc2nc(CC(=O)c3ccccc3[N+](=O)[O-])c(CC(=O)c3ccccc3[N+](=O)[O-])nn12 [NSC614430, 13] | 4.9 | 
2 | Cc1ccc2nc(C)cc(N=NC(C)c3cn(C)n(-c4ccccc4)c3=O)c2c1 (configuration not stated) [NSC300598, 7] | 10.9 | 
3 | Cc1cc(N=NCc2ccc3c(c2)OCO3)c2cc3c(cc2n1)OCO3 [NSC332389, 3] | 0.19 | 2.9
4 | CCn1c2ccccc2c2cc(CN=Nc3cc(C)nc4cc5c(cc34)OCO5)ccc21 [NSC332395, 4] | 0.12 | 4.1
5 | O=C(O)C(CCCCNc1ccc([N+](=O)[O-])cc1[N+](=O)[O-])Nc1ccc([N+](=O)[O-])cc1[N+](=O)[O-] (configuration not stated) [NSC89640, 9] | 13 | 
6 | Cc1cc(N=NC(C)c2cn(C)n(-c3ccccc3)c2=O)c2cc3c(cc2n1)OCO3 (configuration not stated) [NSC332398, 1] | 0.18 | 4.4
7 | O=C(CC(=Nc1ccccc1)C(=O)c1ccccc1)c1ccccc1 [NSC402686, 14] | 37 | 

Continued, values first:

Row | Ki [1] [µM] | IC50 [2] [µM] | Compound
8 | 0.22 | 10.1 | COc1cccc(CN=Nc2cc(C)nc3cc4c(cc23)OCO4)c1 [NSC332384, 2]
9 | 6.7 |  | COc1ccc(C(Cc2ccccc2)/N=N/c2ccc([N+](=O)[O-])c([N+](=O)[O-])c2)cc1 (configuration not stated) [NSC131534, 11]
10 |  | > 100 | C/C(=N\Nc1cc(C)c2ccccc2n1)c1cn(C)n(-c2ccccc2)c1=O [NSC332410, 8]
11 | 17 |  | O=C(/C=C\c1ccc([N+](=O)[O-])cc1)NCCCCNC(=O)/C=C/c1ccc([N+](=O)[O-])cc1 [NSC107215, 10]
12 | 0.68 | 34.4 | Cc1cc(N=NCc2c(C)n(C)n(-c3ccccc3)c2=O)c2cc3c(cc2n1)OCO3 [NSC332396, 5]
